# Experimental data as given in patent US8431557B2, “Treatment of menopause-associated symptoms” (Besins Healthcare Luxembourg SARL, priority 2006, dated 2013).
# Where two headings read alike, the source gives them in different places.
# Columns and labels:
# menopausal women [1] = test: Placebo-controlled study: moderate to severe symptom of vulvar and vaginal atrophy; assay type: in vivo, human (women); settings: 0.375 mg dose (N = 114), Endpoint
# Protocol: (§1) This study was a multi-centred, double-blind, placebo-controlled, parallel group comparison. A total of 351 subjects were enrolled at 78 sites in the United States.
# (§2) A two-week, medication free, Pre-Treatment Phase was used to determine subject vasomotor symptoms. Efficacy assessments included the number and intensity of hot flushes per day, and severity of vulvar and vaginal atrophy symptoms.
# (§3) The three treatment groups comprised the following dosages: • A 0.375 mg dose (1.25 g of gel @ 0.03%) applied to one arm and 0.9 g of placebo gel applied on the other arm once daily for 12 weeks; • A 0.27 mg dose (0.9 g of gel @ 0.03%) applied to one arm and 1.25 g of placebo gel applied on the other arm once daily for 12 weeks; and • 0.9 g of placebo gel applied to one arm and 1.25 g of placebo gel applied on the other arm once daily for 12 weeks.
# (§4) The Treatment Phase was 12 weeks. A pre-treatment period of 2 weeks was used to initially evaluate each subject's vasomotor symptoms.
# (§5) All data were analyzed using the approach of Observed Cases (OC).
# (§6) For all continuous primary and secondary efficacy parameters, descriptive statistics tables and 2-way ANCOVA with fixed factors treatment and centre, and baseline value as covariate were provided. The interaction of treatment and centre was investigated using 2-way ANCOVA with fixed factors treatment, centre, and treatment-by-centre interaction with baseline value as covariate. To control the Type-I error rate, a step-down procedure using contrasts was performed to compare each treatment group to the placebo group. First, the group with the 0.375 mg dose was compared against placebo at the α=0.05 level (2-sided). If the null hypothesis was rejected, the group with the 0.27 mg dose was compared to placebo at the α=0.05 level (2-sided). Graphs were used to characterize the dose response. If the assumptions of the model were not met, then van Elteren's test with centre as the stratification variable was used in the step-down procedure. For categorical data, Fisher's exact test was used to compare treatment groups.
# (§7) The study assessed the following variables: • Mean change in frequency of moderate to severe vasomotor symptoms from baseline to Week 4; • Mean change in frequency of moderate to severe vasomotor symptoms from baseline to Week 12; • Mean change in severity of moderate to severe vasomotor symptoms from baseline to Week 4; • Mean change in severity of moderate to severe vasomotor symptoms from baseline to Week 12; • Mean change in frequency of moderate-to-severe hot flushes at each week; • Mean change in severity of moderate-to-severe hot flushes at each week; • Mean change from baseline to Week 12 in the moderate to severe symptom of vulvar and vaginal atrophy that has been identified by the subject as being the most bothersome to her (vaginal pain, dryness, irritation/itching, bleeding, dysuria);
# The severity of symptoms of vulvar and vaginal atrophy (vaginal pain associated with sexual activity, dryness, irritation/itching, bleeding associated with sexual activity, or dysuria) that was identified by the subject as moderate to severe and most bothersome was assessed at Week 1, Week 12, or Early Termination using the following rating scale: […]
# [2] = Plasma concentrations of estradiol and unconjugated estrone (HPLC with MS/MS); assay type: in vivo, human (women); settings: for Geometric Mean Concentration of E2 (plasma): Baseline; for concentration at 4 weeks / concentration at 8 weeks / concentration at 12 weeks: female, human, plasma, topical, read-out: Geometric Mean Concentration of E2 (plasma)
# Protocol: A single 10 mL sample of whole blood was collected at baseline, Weeks 4, 8, and 12. To eliminate the possibility of sample contamination, only the specimens obtained from the arm not used for estradiol application were reported.
# menopausal women [3] = test: Placebo-controlled study: severity of moderate to severe hot flushes; assay type: in vivo, human (women); design: key to Severity of Moderate to Severe Hot Flushes, Mean Change from Baseline / Severity of Moderate to Severe Hot Flushes, Mean: 0 none, 1 mild, 2 moderate, 3 severe hot flush intensity; settings: for Severity of Moderate to Severe Hot Flushes, Mean: Baseline
# Protocol: as §1, §2, §3, §4, §5, §6, §7
# Severity of moderate to severe vasomotor symptoms was defined as (2*number of moderate hot flushes+3*number of severe hot flushes)/total number of moderate and severe hot flushes.
# As with frequency, if less than 10 days of data were available for the baseline period, the baseline severity was considered missing.
# On a daily basis, the subject recorded the number of hot flushes and rated the intensity of each based on a four-point scale as follows: • 0 (none) • 1 (mild) Sensation of heat without perspiration • 2 (moderate) Sensation of heat with perspiration, but the subject was able to continue with their activity • 3 (severe) Sensation of heat with sweating, sufficiently severe to result in discontinuation of activity Assessment of Vulvar and Vaginal Atrophy Symptom Severity
# [4] = cited from earlier work
smiles,measurement,setting,value
"C[C@]12CC[C@@H]3c4ccc(O)cc4CC[C@H]3[C@@H]1CC[C@@H]2O [estradiol, 17-beta estradiol]","Symptom of Vulvar and Vaginal Atrophy, number of subjects rated Mild",menopausal women [1],17
same,"Symptom of Vulvar and Vaginal Atrophy, number of subjects rated Moderate",menopausal women [1],9
same,"Symptom of Vulvar and Vaginal Atrophy, number of subjects rated None",menopausal women [1],10
same,"Symptom of Vulvar and Vaginal Atrophy, number of subjects rated Severe",menopausal women [1],6
same,"Symptom of Vulvar and Vaginal Atrophy, percent of subjects rated Mild",menopausal women [1],(14.9%)
same,"Symptom of Vulvar and Vaginal Atrophy, percent of subjects rated Moderate",menopausal women [1],(7.9%)
same,"Symptom of Vulvar and Vaginal Atrophy, percent of subjects rated None",menopausal women [1],(8.8%)
same,"Symptom of Vulvar and Vaginal Atrophy, percent of subjects rated Severe",menopausal women [1],(5.3%)
same,Geometric Mean Concentration of E2 (plasma),[2]; 0.270 mg estradiol dose,4.2 pg/mL
same,Geometric Mean Concentration of E2 (plasma),[2]; 0.375 mg estradiol dose,3.7 pg/mL
same,concentration at 4 weeks,[2]; 0.27 mg,0.0142 ng/mL
same,concentration at 8 weeks,[2]; 0.27 mg,0.0156 ng/mL
same,concentration at 12 weeks,[2]; 0.27 mg,0.014 ng/mL
same,concentration at 4 weeks,[2]; 0.375 mg,0.0183 ng/mL
same,concentration at 8 weeks,[2]; 0.375 mg,0.0158 ng/mL
same,concentration at 12 weeks,[2]; 0.375 mg,0.0214 ng/mL
same,"Week at which statistical significance vs placebo was achieved, severity of moderate to severe hot flushes",menopausal women [3]; 0.27 mg dose,8 Week
same,"Severity of Moderate to Severe Hot Flushes, Mean",menopausal women [3]; 0.27 mg dose,2.52
same,"Severity of Moderate to Severe Hot Flushes, Mean Change from Baseline","menopausal women [3]; 0.27 mg dose, Week 1",−0.02
same,"Severity of Moderate to Severe Hot Flushes, Mean Change from Baseline","menopausal women [3]; 0.27 mg dose, Week 2",−0.10
same,"Severity of Moderate to Severe Hot Flushes, Mean Change from Baseline","menopausal women [3]; 0.27 mg dose, Week 3",−0.21
same,"Severity of Moderate to Severe Hot Flushes, Mean Change from Baseline","menopausal women [3]; 0.27 mg dose, Week 4",−0.26
same,"Severity of Moderate to Severe Hot Flushes, Mean Change from Baseline","menopausal women [3]; 0.27 mg dose, Week 5",−0.29
same,"Severity of Moderate to Severe Hot Flushes, Mean Change from Baseline","menopausal women [3]; 0.27 mg dose, Week 6",−0.36
same,"Severity of Moderate to Severe Hot Flushes, Mean Change from Baseline","menopausal women [3]; 0.27 mg dose, Week 7",−0.40
same,"Severity of Moderate to Severe Hot Flushes, Mean Change from Baseline","menopausal women [3]; 0.27 mg dose, Week 8",−0.46
same,"Severity of Moderate to Severe Hot Flushes, Mean Change from Baseline","menopausal women [3]; 0.27 mg dose, Week 9",−0.60
same,"Severity of Moderate to Severe Hot Flushes, Mean Change from Baseline","menopausal women [3]; 0.27 mg dose, Week 10",−0.58
same,"Severity of Moderate to Severe Hot Flushes, Mean Change from Baseline","menopausal women [3]; 0.27 mg dose, Week 11",−0.66
same,"Severity of Moderate to Severe Hot Flushes, Mean Change from Baseline","menopausal women [3]; 0.27 mg dose, Week 12",−0.70
same,"Week at which statistical significance vs placebo was achieved, severity of moderate to severe hot flushes",menopausal women [3]; 0.375 mg dose,4 Week
same,"Severity of Moderate to Severe Hot Flushes, Mean",menopausal women [3]; 0.375 mg dose,2.52
same,"Severity of Moderate to Severe Hot Flushes, Mean Change from Baseline","menopausal women [3]; 0.375 mg dose, Week 1",0.00
same,"Severity of Moderate to Severe Hot Flushes, Mean Change from Baseline","menopausal women [3]; 0.375 mg dose, Week 2",−0.10
same,"Severity of Moderate to Severe Hot Flushes, Mean Change from Baseline","menopausal women [3]; 0.375 mg dose, Week 3",−0.19
same,"Severity of Moderate to Severe Hot Flushes, Mean Change from Baseline","menopausal women [3]; 0.375 mg dose, Week 4",−0.31
same,"Severity of Moderate to Severe Hot Flushes, Mean Change from Baseline","menopausal women [3]; 0.375 mg dose, Week 5",−0.35
same,"Severity of Moderate to Severe Hot Flushes, Mean Change from Baseline","menopausal women [3]; 0.375 mg dose, Week 6",−0.49
same,"Severity of Moderate to Severe Hot Flushes, Mean Change from Baseline","menopausal women [3]; 0.375 mg dose, Week 7",−0.67
same,"Severity of Moderate to Severe Hot Flushes, Mean Change from Baseline","menopausal women [3]; 0.375 mg dose, Week 8",−0.59
same,"Severity of Moderate to Severe Hot Flushes, Mean Change from Baseline","menopausal women [3]; 0.375 mg dose, Week 9",−0.77
same,"Severity of Moderate to Severe Hot Flushes, Mean Change from Baseline","menopausal women [3]; 0.375 mg dose, Week 10",−0.76
same,"Severity of Moderate to Severe Hot Flushes, Mean Change from Baseline","menopausal women [3]; 0.375 mg dose, Week 11",−0.89
same,"Severity of Moderate to Severe Hot Flushes, Mean Change from Baseline","menopausal women [3]; 0.375 mg dose, Week 12",−0.90
same,serum estradiol level,[4]; daily topical 0.75 mg dose of estradiol (1.25 g of hydro-alcoholic gel per day),elevation in the serum estradiol level
same,serum estradiol level,[4]; lower estradiol dose than 0.75 mg,did not achieve similar serum levels
